The numbers were not newly measured in US20140271726A1, “COMPOSITIONS AND METHODS FOR […] SUSCEPTIBILITY TO ANTIVIRAL AGENTS” (WISCONSIN ALUMNI RESEARCH FOUNDATION, priority 2013, published 2014), which cites them from elsewhere.

This data set deals with HCV genotype 3. The settings on record: genotype 3 patient, short duration monotherapy.

Regarding `C/C=C/C[C@@H](C)[C@@H](O)[C@H]1C(=O)N[C@@H](CC)C(=O)N(C)[C@H](C)C(=O)N(CC)[C@@H](C(C)C)C(=O)N[C@@H](C(C)C)C(=O)N(C)[C@@H](CC(C)C)C(=O)N[C@@H](C)C(=O)N[C@H](C)C(=O)N(C)[C@@H](CC(C)C)C(=O)N(C)[C@@H](CC(C)C)C(=O)N(C)[C@@H](C(C)C)C(=O)N1C` [alisprovir], the clinical outcome is recorded as “cured”.
